Data from patent publication US6894060B2, “Method for the treatment of dermal lesions caused by envenomation” (3M Innovative Properties Company, priority 2000, dated 2005).

Test system: Loxosceles reclusa envenomation (spider bite dermal lesions)
Test: Treatment of Loxosceles reclusa envenomation with imiquimod 5% cream (consecutive clinical cases)
Format: in vivo, human
Procedure: A consecutive series of 7 bites on 5 patients were treated with imiquimod 5% cream (available under the tradename ALDARA from 3M Pharmaceuticals, St. Paul, Minn., USA) applied by the clinic staff, three times per week (typically Monday, Wednesday and Friday) for two weeks. Sufficient cream was used to cover the area of erythema, rubbing the cream gently until it “vanished” as per labeled instructions. In addition, a single intramuscular dose of ceftriaxone 1 gm was given together with oral dicloxicillin, 500 mg bid for 10 days. Patients were re-examined by a physician at 7, 14 and 28 days following initiation of therapy.

SMILES: CC(C)Cn1cnc2c(N)nc3ccccc3c21 [imiquimod, 1-(2-methylpropyl)-1H-imidazo[4,5-c]quinolin-4-amine]
- improvement in induration and erythema by day 7 (7 bites in 5 patients): Marked improvement
- resolution of induration and erythema by day 14 (7 bites in 5 patients): full resolution in all but one case
- cases with necrosis (7 consecutive cases, versus historical rate 7/12 (0.583): binomial p=0.002, Chi-square p=0.01): 0 out of 7
- residual scarring or pigmentation changes (day 28 follow-up visit): No residual scarring or pigmentation changes
- development of necrosis (imiquimod treated cases, 7 bites in 5 patients): Necrosis did not develop in any
- erythema, 14 Day Follow-up (patient five, right calf bite): present
- ulcer status, 14 Day Follow-up (patient five, right calf bite): Ulcer healed
- erythema, 7 Day Follow-up (patient five, right calf bite, 1.2 cm erythema at presentation): No erythema
- ulcer, 7 Day Follow-up (patient five, right calf bite, 1.8 cm central core at presentation): 0.75 cm ulcer
- erythema resolved by (day) (patient five, right calf bite, erythema present at day 14): d28)
- pain, 7 Day Follow-up (patient five, right calf bite, painful at presentation): Decreased pain
- reappearance of erythema, presumed to be secondary to imiquimod (patient five, erythema cleared at the day 7 visit): developed again by day 14
- lesion status, 14 Day Follow-up (patient four, right calf bite): Completely
- induration, 7 Day Follow-up (patient four, right calf bite, 1.5 cm induration at presentation, cream three times per week for two weeks): 0.5 cm
- erythema, 7 Day Follow-up (patient four, right calf bite, 9 cm erythema at presentation): No erythema
- pain or tenderness, 7 Day Follow-up (patient four, right calf bite, painful at presentation): No pain or
- lesion status, 14 Day Follow-up (patient one, right calf bite): Completely
- firm induration, 7 Day Follow-up (patient one, right calf bite, 1.3 cm induration at presentation): 1.25 cm firm
- induration (second entry of the cell), 7 Day Follow-up (patient one, right calf bite, 10 cm erythema at presentation): 5 cm
- tenderness, 7 Day Follow-up (patient one, right calf bite, very painful at presentation): Non-tender
- time from bite to resolution (patient three, first bite): 9 days
- lesion status, 7 Day Follow-up (patient three, left buttock bite, 1.0 cm induration, erythema, painful at presentation): Completely
- lesion status, 14 Day Follow-up (patient three, right thigh bite): Completely
- central core, 7 Day Follow-up (patient three, right thigh bite, 1.5 cm induration at presentation): 2.5 cm
- erythema, 7 Day Follow-up (patient three, right thigh bite, 7.5 × 11 cm erythema at presentation): No erythema
- pain or tenderness, 7 Day Follow-up (patient three, right thigh bite, tender at presentation): No pain or
- lesion status, 14 Day Follow-up (patient two, left thigh bite): Completely
- central core, 7 Day Follow-up (patient two, left thigh bite, 1.0 cm central core at presentation): 0.5 cm
- erythema, 7 Day Follow-up (patient two, left thigh bite, 6.0 cm erythema at presentation): 2.0 cm
- lesion status, 14 Day Follow-up (patient two, right breast bite): Completely
- central core, 7 Day Follow-up (patient two, right breast bite, 1.2 cm central core at presentation): 1.0 cm
- erythema, 7 Day Follow-up (patient two, right breast bite, 3.0 cm erythema at presentation): No erythema
- time to pain relief following the first dose (reported by all patients, 7 bites in 5 patients): 1 to 2 days
